Test results published in article PMC3001719, “The heme sensing response regulator HssR in Staphylococcus aureus but not the homologous RR23 in Listeria monocytogenes modulates susceptibility to the antimicrobial peptide plectasin” (BMC Microbiology, 2010).
Values joined by “and” are separate entries in the source; they are usually repeats but may differ in a detail not shown here. Equal entries are not always repeated.

What was measured:
[1] = test system: L. monocytogenes; assay: MIC of plectasin stated in the text; type: cell-based, Listeria monocytogenes; conditions: difference in MIC values between the strains
[2] = test system: S. aureus hssR mutants; assay: MIC of hssR mutants compared to wild type; type: cell-based, Staphylococcus aureus; conditions: ratio of MIC, S. aureus hssR response regulator mutants vs wild type, regardless of the genetic background
Method: (§1) Minimal inhibitory concentrations (MIC) of plectasin, eurocin, protamine, novicidin, and novispirin G10 were determined using a microbroth dilution method. Colonies from a BHI plate incubated overnight at 37 °C were suspended in MHB pH 7.4 to an absorbance at 546 nm of 0.11-0.12 at 546 nm (approx. 1.0 × 10^8 CFU/ml) and diluted in MHB to a concentration of 5.0 × 10^5 CFU/ml. Ninety μl of bacterial suspension was incubated with 10 μl of peptide solution in polypropylene 96-well plates (Nunc, 442587) for 18-24 h at 37°C. The peptide solutions were made fresh on the day of assay. The range of concentrations assayed were 0.25-256 μg/ml for plectasin and eurocin, 0.125-128 μg/ml for protamine and novispirin G10, and 0.031-32 μg/ml for novicidin. MIC was the lowest peptide concentration at which visual growth was inhibited.

[3] = test system: L. monocytogenes; conditions: cited from earlier work
Description: (§2) In the present study, we addressed the response of two human pathogens, S. aureus and L. monocytogenes to plectasin. […] In addition, the two bacteria represent different routes of infection and may be exposed to different arrays of HDPs. S. aureus is a hospital- and community-acquired pathogen that causes a wide range of diseases including septicaemia, toxic-shock syndrome and food poisoning ...

[4] = test system: methicillin resistant S. aureus (MRSA); conditions: cited from earlier work
Description: as §2

[5] = test system: S. aureus 15981 wild type; assay: Growth in TSB with plectasin; type: cell-based, Staphylococcus aureus; conditions: plectasin 35 μg/ml, 37°C, absorbance at 600 nm
Method: (§3) Overnight cultures of S. aureus were diluted to an absorbance at 600 nm of 0.05 in TSB with and without 4 μM hemin and/or 35 μg/ml plectasin and grown at 37°C. Measurements of the absorbance were made every 30 minutes.

[6] = test system: S. aureus 15981 ΔTCS15 (hssRS) mutant; assay: Growth in TSB with plectasin; type: cell-based, Staphylococcus aureus; conditions: plectasin 35 μg/ml, 37°C, absorbance at 600 nm
Method: as §3

[7] = test system: S. aureus 8325-4 hssR::bursa transposon mutant; assay: Growth in TSB with plectasin; type: cell-based, Staphylococcus aureus; conditions: plectasin 35 μg/ml, 37°C, absorbance at 600 nm
Method: as §3

[8] = test system: S. aureus 8325-4 hssR::bursa/pRMC2-hssRS; assay: Growth in TSB with plectasin; type: cell-based, Staphylococcus aureus; conditions: plectasin 35 μg/ml, 37°C, absorbance at 600 nm
Method: as §3

[9] = test system: S. aureus 8325-4 hssR::bursa/pRMC2-hssRS (complementation of hssR transposon mutant); assay: MIC, microbroth dilution; type: cell-based, Staphylococcus aureus; conditions: 8325-4 hssR::bursa/pRMC2-hssRS compared to 8325-4 hssR::bursa, MIC
Method: Protamine was purchased from Sigma (P4020-5G). Plectasin, eurocin, novicidin, and novispirin G10 were supplied by Department of Antiinfective Discovery, Novozymes A/S. The host defence peptides were dissolved in 0.01% acetic acid/0.1% bovine serum albumin (Sigma, A7906).
as §1

[10] = test system: S. aureus 8325-4 wild type; assay: In vitro bacterial killing kinetics; type: cell-based, Staphylococcus aureus; conditions: plectasin 1× MIC, TSB, 37°C, CFU after 1, 3 and 5 hours
Method: (§4) Overnight cultures of S. aureus wild type […], 8325-4 hssR::bursa and 8325-4 hssR::bursa/pRMC2-hssRS were diluted 1000 fold in TSB and grown 2 hours at 37°C. Samples were taken to time T = 0 and plated for CFU determination. Plectasin (1× MIC) was added, and samples were withdrawn after 1,3 and 5 hours growth at 37°C and plated for CFU determination.

[11] = test system: S. aureus 8325-4 hssR::bursa; assay: In vitro bacterial killing kinetics; type: cell-based, Staphylococcus aureus; conditions: plectasin 1× MIC, TSB, 37°C, CFU after 1, 3 and 5 hours; 8325-4 hssR::bursa mutant
Method: as §4

[12] = test system: L. monocytogenes; assay: ATP leakage (intracellular and extracellular ATP, bioluminescence); type: cell-based, Listeria monocytogenes; conditions: L. monocytogenes, 500 μg/ml peptide, 50 mM HEPES pH 7.0 with 0.2% glucose, vs peptide dilution buffer
Method: L. monocytogenes and S. aureus were grown in TSB at 37°C. Bacteria were harvested (10 min at 3000 RPM) at mid-exponential phase (absorbance at 546 nm of 2.5 ± 0.2 and 1.0 ± 0.2 for S. aureus and L. monocytogenes, respectively), washed once in 50 mM potassium phosphate buffer pH 7.0 and once in 50 mM HEPES buffer pH 7.0. The pellet was resuspended in 50 mM HEPES pH 7.0 to a final absorbance at 546 nm of 10. Bacteria were stored on ice and used within 5 hours. […] ATP was determined using a bioluminescence kit (Sigma, FLAA-1KT) and a BioOrbit 1253 luminometer. Total ATP content was determined by rapidly permeabilising 20 μl cell suspension with 80 μl dimethyl sulfoxide. The cell suspension was diluted in 4.9 ml sterile water, and ATP content was determined in 100 μl of the preparation as described by the manufacturer. To determine the extracellular ATP concentration, the 20 μl cell suspension was mixed with 80 μl sterile water and analyzed as described above. Intracellular ATP concentrations were calculated by using the intracellular volumes of 0.85 and 1.7 μm^3 for S. aureus and L. monocytogenes, respectively. The number of cells in suspension was determined by plate spreading.

[13] = test system: plasmid DNA (pBluescript II SK+); assay: DNA-binding analysis by in vitro gel retardation; conditions: 100 ng plasmid DNA with increasing amounts of peptide, 1 h at room temperature, data not shown
Method: Gel retardation analysis were performed as described by Nan et al by mixing 100 ng of plasmid DNA (pBluescript II SK^+(Stratagene)) with increasing amounts of peptide in 20 μl binding buffer (5% glycerol, 10 mM Tris, 1 mM EDTA, 1 mM dithiothreitol, 20 mM KCL and 50 μg ml^-1 bovine serum albumin). Reaction mixtures were incubated 1 h at room temperature and subjected to 1% agarose gel electrophoresis and visualised using ethidium bromide.

[14] = test system: mice, human keratinocytes and erythrocytes; conditions: in mice and on human keratinocytes and erythrocytes; cited from earlier work
Description: Recently, the antimicrobial peptide, plectasin isolated from a saprophytic fungus, was described.

## CC[C@H](C)[C@@H]1NC(=O)[C@H](CO)NC(=O)[C@H](CCCCN)NC(=O)[C@@H]2CSSC[C@@H](C(=O)N[C@@H](Cc3ccc(O)cc3)C(=O)O)NC(=O)[C@H](CCCCN)NC(=O)[C@@H]3CSSC[C@H](NC(=O)[C@H](CCC(N)=O)NC(=O)[C@H](CCSC)NC(=O)[C@H](CC(=O)O)NC(=O)[C@H](CC(=O)O)NC(=O)[C@H](CCC(=O)O)NC(=O)[C@H](CC(=O)O)NC(=O)[C@H](Cc4c[nH]c5ccccc45)NC(=O)[C@@H]4CCCN4C(=O)CNC(=O)[C@H](CC(N)=O)NC(=O)[C@@H](NC(=O)CNC(=O)[C@H](Cc4ccccc4)NC(=O)CN)CSSC[C@H](NC(=O)[C@H](Cc4ccc(O)cc4)NC(=O)CNC(=O)CNC(=O)[C@H](CCCCN)NC(=O)[C@H](Cc4ccc(O)cc4)NC(=O)CNC(=O)[C@H](CCCCN)NC1=O)C(=O)N[C@@H](C)C(=O)N[C@@H](CCCCN)C(=O)NCC(=O)NCC(=O)N[C@@H](Cc1ccccc1)C(=O)N[C@@H](C(C)C)C(=O)N3)C(=O)N[C@@H](Cc1c[nH]cn1)C(=O)N[C@@H](CC(N)=O)C(=O)N[C@@H](Cc1c[nH]cn1)C(=O)N2 [plectasin]
[1]
  Tolerance of L. monocytogenes compared to S. aureus: 4-8 fold
[2]
  Increased resistance of hssR mutants compared to the wild type: 2 to 4 fold and 2-4 fold
[3]
  MIC: above 64 mg/L
[4]
  MIC: 16 to 32 µg/mL
[5]
  Growth in the presence of plectasin: inhibited the growth
[6]
  Growth in the presence of plectasin: hardly affected the growth
[7]
  Growth in the presence of plectasin: hardly affected the growth
[8]
  Growth in the presence of plectasin: inhibited the growth to a level comparable to wild type
[9]
  Decrease of resistance by complementation: 2 fold
[10]
  Kinetics of bacterial killing in vitro: killed rapidly
[11]
  Kinetics of bacterial killing in vitro: killed slower than the wild type
[12]
  ATP leakage (intracellular ATP concentration): remained at the same level as the controls
[13]
  Binding to DNA: unable to demonstrate binding
[14]
  Toxicity: very low toxicity
